# Values quoted from earlier work in US20120148662A1, “Formulation” (priority 2010, published 2012).
# How the values were obtained:
# [1] = dosed conventionally
compound,measurement,setting,value
"CCC(CC)CC1(C(=O)Nc2ccccc2SC(=O)C(C)C)CCCCC1 [dalcetrapib, S-[2-([[1-(2-ethylbutyl)-cyclohexyl]-carbonyl]amino)phenyl]2-methylpropanethioate]",aqueous solubility,,extremely low
same,oral bioavailability,[1],low
